Values quoted from earlier work as cited in patent publication US20240374528A1, “[…] DOSAGE FORMS COMPRISING DEUTETRABENAZINE” (AUSPEX PHARMACEUTICALS, INC., priority 2021, published 2024).

Details: relative to tetrabenazine; U.S. Pat. No. 8,524,733

## [2H]C([2H])([2H])Oc1cc2c(cc1OC([2H])([2H])[2H])[C@H]1CC(=O)[C@H](CC(C)C)CN1CC2 [Deutetrabenazine, (RR,SS)-1,3,4,6,7,11b-hexahydro-9,10-di(methoxy-D3)-3-(2-methylpropyl)-2H-benzo[a]quinolizin-2-one]
  half-life of active metabolites: increased half-life of its active metabolites
